One data set addresses Stromelysin-1 (Homo sapiens, UniProt P08254). Description: Inhibition of Matrix metalloprotease-3.
The target in data set [1] is 72 kDa type IV collagenase (Homo sapiens, UniProt P08253). Briefly: Inhibition of Matrix metalloprotease-2.
In the next data set the target is Collagenase 3 (Homo sapiens, UniProt P45452). Description: Inhibition of Matrix metalloprotease-13.
Data set [2] concerns the target Matrix metalloproteinase-9 (Homo sapiens, UniProt P14780). Description: Inhibition of Matrix metalloprotease-9.
A short description of data set [3]: Metabolic bioavailability was determined. In kind it is ADME, organism-based. Conditions: in vivo.
In data set [4] the target is T1, Interstitial collagenase (Homo sapiens, UniProt P03956).
T1 sequence (P03956 whole entry): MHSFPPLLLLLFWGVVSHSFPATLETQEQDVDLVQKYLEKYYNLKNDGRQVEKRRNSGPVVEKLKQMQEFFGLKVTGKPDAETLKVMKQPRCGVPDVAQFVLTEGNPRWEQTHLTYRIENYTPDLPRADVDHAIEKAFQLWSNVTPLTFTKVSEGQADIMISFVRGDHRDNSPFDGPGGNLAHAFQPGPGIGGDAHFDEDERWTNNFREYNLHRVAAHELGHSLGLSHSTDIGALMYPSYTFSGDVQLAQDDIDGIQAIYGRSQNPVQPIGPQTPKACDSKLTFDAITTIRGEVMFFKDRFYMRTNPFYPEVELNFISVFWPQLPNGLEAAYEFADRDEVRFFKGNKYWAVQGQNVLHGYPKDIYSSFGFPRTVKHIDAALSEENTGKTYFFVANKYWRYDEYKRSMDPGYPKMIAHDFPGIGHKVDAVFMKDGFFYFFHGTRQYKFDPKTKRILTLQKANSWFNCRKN
Description: Inhibition of Matrix metalloprotease-1.

A further data set deals with Homo sapiens. Briefly: […] absorption in Caco-2 cell line monolayers was determined. In kind it is ADME.
Data set [5] has as its target T1, Interstitial collagenase. Description: Inhibition ofMatrix metalloprotease-1.

Matrix metalloproteinase-9, sequence (P14780 whole entry): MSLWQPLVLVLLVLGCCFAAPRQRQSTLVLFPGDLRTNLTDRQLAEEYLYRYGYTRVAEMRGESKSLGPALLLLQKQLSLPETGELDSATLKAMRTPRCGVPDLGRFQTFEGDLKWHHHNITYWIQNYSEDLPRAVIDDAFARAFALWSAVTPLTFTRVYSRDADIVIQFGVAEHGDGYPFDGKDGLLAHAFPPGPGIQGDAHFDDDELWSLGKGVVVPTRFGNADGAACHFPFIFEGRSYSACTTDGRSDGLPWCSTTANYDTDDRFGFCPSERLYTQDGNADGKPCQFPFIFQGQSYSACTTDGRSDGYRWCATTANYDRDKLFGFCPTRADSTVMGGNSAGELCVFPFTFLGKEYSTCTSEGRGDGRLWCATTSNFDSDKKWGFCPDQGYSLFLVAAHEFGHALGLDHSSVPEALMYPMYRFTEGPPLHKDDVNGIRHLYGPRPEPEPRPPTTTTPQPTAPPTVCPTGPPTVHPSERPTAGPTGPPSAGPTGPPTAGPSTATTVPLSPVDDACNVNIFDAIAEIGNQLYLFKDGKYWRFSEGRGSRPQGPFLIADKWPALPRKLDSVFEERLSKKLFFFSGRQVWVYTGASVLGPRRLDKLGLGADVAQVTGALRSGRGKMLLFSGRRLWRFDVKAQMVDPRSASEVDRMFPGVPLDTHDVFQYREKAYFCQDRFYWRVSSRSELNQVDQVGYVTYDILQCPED
72 kDa type IV collagenase, sequence (P08253 whole entry): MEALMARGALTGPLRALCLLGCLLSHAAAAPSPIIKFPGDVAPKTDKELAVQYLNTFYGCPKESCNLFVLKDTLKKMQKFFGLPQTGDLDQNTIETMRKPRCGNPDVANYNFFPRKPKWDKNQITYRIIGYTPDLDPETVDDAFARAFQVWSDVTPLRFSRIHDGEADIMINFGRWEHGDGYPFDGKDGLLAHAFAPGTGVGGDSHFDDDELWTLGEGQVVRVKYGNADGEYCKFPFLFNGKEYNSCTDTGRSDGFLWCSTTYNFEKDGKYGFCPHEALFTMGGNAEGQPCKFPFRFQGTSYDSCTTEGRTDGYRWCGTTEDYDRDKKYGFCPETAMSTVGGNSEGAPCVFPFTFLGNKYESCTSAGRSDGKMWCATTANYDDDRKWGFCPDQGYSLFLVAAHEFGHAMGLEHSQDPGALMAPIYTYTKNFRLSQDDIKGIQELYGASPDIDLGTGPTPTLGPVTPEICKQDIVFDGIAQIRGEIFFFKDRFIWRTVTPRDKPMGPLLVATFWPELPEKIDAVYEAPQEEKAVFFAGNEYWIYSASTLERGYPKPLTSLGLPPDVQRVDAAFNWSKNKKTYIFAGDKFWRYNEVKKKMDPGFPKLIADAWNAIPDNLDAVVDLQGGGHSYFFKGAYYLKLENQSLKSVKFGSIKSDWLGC
Stromelysin-1, sequence (P08254 whole entry): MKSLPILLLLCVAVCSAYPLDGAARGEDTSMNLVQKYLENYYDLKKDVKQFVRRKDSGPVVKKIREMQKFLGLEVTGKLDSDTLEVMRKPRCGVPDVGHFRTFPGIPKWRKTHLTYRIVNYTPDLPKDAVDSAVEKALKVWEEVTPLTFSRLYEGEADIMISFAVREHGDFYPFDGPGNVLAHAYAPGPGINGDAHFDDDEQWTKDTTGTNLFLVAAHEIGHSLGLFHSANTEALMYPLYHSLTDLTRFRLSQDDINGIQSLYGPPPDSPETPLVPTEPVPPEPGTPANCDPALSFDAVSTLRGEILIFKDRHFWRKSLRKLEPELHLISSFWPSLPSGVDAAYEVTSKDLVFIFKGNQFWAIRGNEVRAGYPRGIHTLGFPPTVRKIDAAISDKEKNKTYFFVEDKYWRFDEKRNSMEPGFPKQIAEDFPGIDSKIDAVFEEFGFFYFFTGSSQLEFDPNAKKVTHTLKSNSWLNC

Usually IC50 stands for the midpoint of a concentration-inhibition curve. As to `O=C(NO)C(CCn1nnc2ccccc2c1=O)COCCc1ccc(-c2ccc(Cl)cc2)cc1` (stereo not drawn), the IC50 worked out at 4.3 nM against Stromelysin-1, 25 nM in data set [1], 67 nM against Collagenase 3 and 3.6 nM in data set [2]. Also, the MF in data set [3] is 23%.
Turning to `O=C(NO)C(CCn1c(=O)[nH]c2ccccc2c1=O)COc1ccc(-c2ccccc2)cc1` (stereo not drawn), the 50% inhibitory concentration (IC50) at Stromelysin-1 came to 69 nM; in data set [1] it was 24 nM; against Collagenase 3, 65 nM; in data set [2], 25 nM. This compound also showed an MF in data set [3] of 52%.
In the case of `O=C(NO)C(CCN1C(=O)c2ccccc2C1=O)COc1ccc(-c2ccccc2)cc1` (stereo not drawn), the IC50 came out at 16 nM against Stromelysin-1; 3 nM in data set [1]; 7 nM against Collagenase 3; 5 nM in data set [2]; 768 nM against Interstitial collagenase [4].
As to `O=C(NO)C(CCn1ncc2ccccc2c1=O)COc1ccc(-c2ccccc2)cc1` (stereo not drawn), the IC50 at Stromelysin-1 was 62 nM; in data set [1], 6 nM; against Collagenase 3 it was 101 nM; in data set [2], 33 nM; at Interstitial collagenase [4], > 10000 nM. In data set [3], this compound gave an MF of 13%.
As to `O=C(NO)C(CCN1C(=O)c2ccccc2S1(=O)=O)COc1ccc(-c2ccccc2)cc1` (stereo not drawn), the IC50 against Stromelysin-1 was 23 nM; in data set [1] it was 7 nM; against Collagenase 3, 42 nM; in data set [2], 16 nM; against Interstitial collagenase [4], > 100000 nM. This compound displayed an MF in data set [3] of 30%.
Regarding `O=C(NO)C(CCn1nnc2ccccc2c1=O)COc1ccc(-c2ccc(Cl)cc2)cc1` (stereo not drawn), the IC50 was 3.2 nM at Stromelysin-1; 0.1 nM in data set [1]; 0.016 nM on Collagenase 3; 0.6 nM in data set [2]; 74 nM against Interstitial collagenase [4]. The A in the data set on Homo sapiens worked out at 75%. In data set [3], this compound registered an MF of 35%.
Consider `N#Cc1ccc(-c2ccc(OCC(CCn3nnc4ccccc4c3=O)C(=O)NO)cc2)cc1` (stereo not drawn), for which the IC50 on Stromelysin-1 came to 1.1 nM; in data set [1] it was 0.4 nM; on Collagenase 3 it was 0.6 nM; in data set [2], 0.6 nM; on Interstitial collagenase [4], 116 nM. Further, the A in the data set on Homo sapiens is listed as 96%. In data set [3], this compound yielded an MF of 42%.
Turning to `O=C(NO)C(CCCN1C(=O)c2ccccc2C1=O)COc1ccc(-c2ccccc2)cc1` (stereo not drawn), the IC50 on Stromelysin-1 was 313 nM; in data set [1], 82 nM; in data set [2], 221 nM; on Interstitial collagenase [4], > 1000 nM.
For the compound `CN1C(=O)N(CCC(COc2ccc(-c3ccccc3)cc2)C(=O)NO)C(=O)C1(C)C` (stereo not drawn), the IC50 is 71 nM against Stromelysin-1; 36 nM in data set [1]; 84 nM against Collagenase 3; 199 nM in data set [2]; > 1000 nM on Interstitial collagenase [5]. For the same compound, the MF in data set [3] was found to be 17%.
`O=C(NO)C(CCn1nnc2ccccc2c1=O)COc1ccc(-c2ccccc2)cc1` (stereo not drawn): the 50% inhibitory concentration (IC50) at Stromelysin-1 stood at 5 nM; in data set [1], 0.5 nM; against Collagenase 3, 3 nM; in data set [2], 1 nM; at Interstitial collagenase [4], 31 nM. The A in the data set on Homo sapiens was 80%. In addition, in data set [3], the MF was determined as 29%.
Regarding `N#Cc1ccc(-c2ccc(OCCC(=O)NO)cc2)cc1`, the IC50 against Stromelysin-1 is 47 nM; in data set [1], 49 nM; on Collagenase 3 it was 64 nM; in data set [2], 655 nM; on Interstitial collagenase [4] it was > 10 nM.

These data come from ChEMBL document CHEMBL1134157, “General synthesis of alpha-substituted 3-bisaryloxy propionic acid derivatives as specific MMP inhibitors” (Bioorg Med Chem Lett, 2001).
